3 compounds from ChEMBL document CHEMBL1151270, “Phenolic and triterpene glycosides from the stems of Ilex litseaefolia” (J Nat Prod, 2005) can be followed below.

Structures are written as SMILES. In brackets after ≈: the same amount, converted by molar mass. A value given as a limit tells only on which side of the number the result lay.

As a reminder, the IC50 is the concentration at which inhibition is half-maximal. Low readings indicate greater potency in that assay, high ones weaker potency in that assay.

The nature of this experiment: Inhibition of lipase.
`COc1cc(C(=O)OCc2ccc(O[C@@H]3O[C@H](COC(C)=O)[C@@H](O)[C@H](O)[C@H]3O)c(O)c2)ccc1O` [LITSEAEFOLOSIDE A]: the IC50 is greater than 100 µg/mL. On to `COc1cc(C(=O)OCc2ccc(O[C@@H]3O[C@H](COC(=O)/C=C/c4ccc(O)c(O)c4)[C@@H](O)[C@H](O)[C@H]3O)c(O)c2)ccc1O` [LITSEAEFOLOSIDE C], for which the half-maximal inhibitory concentration (IC50) came out at 0.31 µg/mL (≈ 0.504 µM). The value for `COc1cc(C(=O)OCc2ccc(O[C@@H]3O[C@H](CO)[C@@H](O)[C@H](O)[C@H]3O)c(O)c2)ccc1O` [VANILLOYL CALLERYANIN] was greater than 100 µg/mL.
